Key:
mice = details: mouse, in vivo, po
[1] = in vivo; cited from earlier work

| Compound | behavioral recovery (mice) | survival rate (mice) | value indicated for oral toxicity [1] [mg/kg body weight] |
| --- | --- | --- | --- |
| [C-]#[O+] [CO, carbon monoxide] | behavior recovered from being incapable of action | high | – |
| O=S([O-])S(=O)[O-].[Na+].[Na+] [sodium dithionite] | – | – | 2500 |
